Here are results for 15 compounds from patent US20210267193A1, “Pest Repellent Agent” (Kao Corporation, priority 2018, published 2021).

Some results are limits rather than exact numbers.

Data set [1] concerns pests. As to conditions: content in the pest repellent composition; existing pest repellents; cited from earlier work.
Data set [2] can be described thus: Measurement of viscosity (B-type rotational viscometer). Type of data set: physicochemical. As to conditions: rotor M2 (12 or 6 rpm) or L adapter (30 rpm) as listed per sample. The method, then:
(2) Measurement of Viscosity
Viscometer TVB-10, manufactured by […] Co., Ltd. was used as a B-type rotational viscometer according to JIS K7117-1:1999. As to components to be measured, a viscosity value greatly differs for every sample, and therefore, it is difficult to accurately measure all components under a single measurement condition. Then, the measurement was performed using two types of rotors. The viscosity was first measured at a rotational speed of 12 rpm using a rotor M2 in an environment at 23° C. At this time, the component having a viscosity of 2,500 mPa·s or more was again measured at a rotational speed of 6 rpm, to obtain the viscosity value.
On the other hand, the component having a viscosity of 20 mPa·s or less was again measured at a rotational speed of 30 rpm using an L adapter that is a rotor for low viscosity in an environment of 23° C., to obtain the viscosity value.

Data set [3] in a line: Measurement of surface tension (Wilhelmy method, Tensiometer K100). The data set is classed as physicochemical. The note with it: static surface tension, platinum plate. As to the method:
(1) Measurement of Surface Tension
An automatic surface tensiometer: Tensiometer K100 (manufactured by KRUSS GmbH) was used to measure the static surface tension by the Wilhelmy method using a platinum plate in an environment at 25° C.

Data set [4] deals with Aedes albopictus. Description: Mosquito landing rate on replica skin substrate applied with repellent. Type of data set: in vivo. As to conditions: for Landing rate (at 0.25 mg/cm^2): coverage 0.25 mg/cm^2 on polyurethane replica skin substrate. The method, then:
(3) Mosquito Landing Rate
The repellent effect of the pest repellent was evaluated in terms of a mosquito landing rate.
(3-1) Preparation of Aedes albopictus
Female adults of Aedes albopictus were purchased from Mostop Inc. The adults were bred in a room at 28° C. and a relative humidity of 70% RH with a 12-hour light/dark cycle after delivery and appropriately used for tests. During breeding of mosquitoes, a 3% by mass sucrose aqueous solution was given as a feed.
(3-3) Calculation of Mosquito Landing Rate
The mosquito landing rate was determined by applying a repellent onto the aforementioned replica skin substrate in the manner as mentioned below to form a substrate surface, counting the number of mosquitoes landed on the substrate surface, and calculating the mosquito landing rate on the applied surface. This replica skin substrate is a disk having a diameter of 5 cm. Here, the term “landed” means that the mosquito stayed on the replica skin substrate for at least one second.
Four replica skin substrates were prepared, two of which were uniformly applied with a repellent with a fingertip wearing a rubber glove, and the other two were not applied with the repellent. Thereafter, the four substrates were vertically mounted in a glass box having a length, a width, and a height of about 6 cm on each side, such that the applied surface was located inside the boxy. This box has a circular hole with a diameter of 4 cm in the vertical and horizontal directions when viewed from the top, and by setting the aforementioned substrate, a part of the inner wall surface of the box can be made as the substrate surface. Two adjacent surfaces among the four surfaces of the inner wall of the box were set as substrates onto which the repellent was applied.
Four mosquitoes were enclosed in the glass-made box, and a shock was applied to force the mosquitoes to fly, thereby recording on what surface they first landed within 10 seconds. This was repeated 20 times, and the mosquito landing rate on the applied surface was calculated by the following equation.
Mosquito landing rate on applied surface (%)={(Number of mosquitoes landed on two surfaces of replica skin substrates applied with repellent)/(Number of mosquitoes landed on any of four surfaces of replica skin substrates)}×100
In the case of repeating the aforementioned test, fresh unused mosquitoes were used for every test, and the landing rate was calculated as an average.
It is expressed that as the landing rate is lower, the staying of mosquitoes can be suppressed, and the repellent effect is excellent.
In Comparative Example 2, a frosted glass-made substrate (Tempax #240, manufactured by Cosmode Co., Ltd.) was used in place of the replica skin substrate.
The liquid oily component shown in Table 1 was prepared, and the liquid oily component shown in Table 2 was uniformly applied onto the aforementioned replica skin substrate at a coverage of 0.5 mg/cm^2, and the mosquito landing rate was calculated.
In Example 1, each of the liquid oily components shown in Table 3 was uniformly applied onto the replica shin substrate at a coverage of 0.25 mg/cm^2, and the mosquito landing rate was calculated.

Data set [5] concerns Aedes albopictus. As to the kind of experiment: Mosquito landing rate using human forearm. Type of data set: in vivo. The note with it: 4 cm x 5 cm test site, 5 mg (0.25 mg/cm^2), about 50 mosquitoes, 28° C., 70% RH. The method, then:
(4) Evaluation of Mosquito Landing Rate Using Human Forearm
The repellent effect of the pest repellent on human forearm was evaluated in terms of a mosquito landing rate.
(4-1) Preparation of Aedes albopictus
Female adults of Aedes albopictus were purchased from Mostop Inc. The adults were bred in a room at 28° C. and a relative humidity of 70% RH with a 12-hour light/dark cycle after delivery and appropriately used for tests. During breeding of mosquitoes, a 3% by mass sucrose aqueous solution was given as a feed. In order to facilitate the induction to the forearm, before the test, the food was changed to water, and the mosquitoes were fasted for 12 hours or more.
(4-2) Calculation of Landing Rate
The forearm was washed with a body wash (Biore u, manufactured by Kao Corporation), and water droplets were wiped off with a paper towel, followed by performing acclimatization for 10 minutes at room temperature. Thereafter, a rubber glove (Singer Latex Long Glove M, manufactured by Utsunomiya Seisakusho Co., Ltd.) covering up to the elbow was put on the arm to be measured. The mosquito cannot bite through the rubber glove.
The rubber glove was cut off with scissors to expose a test site of 4 cm×5 cm toward the inside of the forearm. The area around the opening of the rubber glove is reinforced with a pressure-sensitive adhesive tape. Then, the resultant was moved to a constant temperature and constant humidity room (28° C., relative humidity: 70%), followed by performing acclimatization for 3 minutes. 5 mg (0.25 mg/cm^2) of the repellent was applied on the test site with a finger wearing the rubber glove, and immediately thereafter, the arm was inserted into a test box (Bug Dorm-1, manufactured by MegaView Science Co., Ltd., 30 cm×30 cm×30 cm). Approximately 50 test mosquitoes are released in this test box. The mosquito stays on the skin and then begins to bite by placing a needle on the skin. In order to prevent blood sucking into the forearm, mosquitoes are removed by using an inset suction pipe passed through a hole into which the arm is inserted just before starting biting. The measurement was terminated at the time when the total number of mosquitoes that succeeded in landing (reached just before the start of biting) and mosquitoes that touched the skin but escaped without landing reached 15. […] The mosquito landing rate was calculated by the following equation. […]
Each of the liquid oily components shown in Table 4 was applied onto the test site of the human forearm at a coverage of 0.25 mg/cm^2, and the mosquito landing rate on the applied surface of the forearm was calculated.

Where [6] appears, read: coverage 0.5 mg/cm^2 on polyurethane replica skin substrate, stay of at least 1 second counts as landed, lower = better repellent effect.
Where [7] appears, read: lower = better repellent effect.

With `CCN(CC)C(=O)c1cccc(C)c1` [DEET, N,N-diethyl-m-toluamide], the effective amount in data set [1] is on record as not below 4 % by mass.

`CC(C)CCCCCCOC(=O)CCCCCC(C)C` [Ester oil b1, Isononyl isononanoate]: the “Viscosity (at 23° C.)” value in data set [2] was found to be 6 mPa · s. In data set [3], the “Surface tension (at 25° C.)” value came out at 25 mN/m. Further, in data set [4] (setting [6]), the “Landing rate (at 0.5 mg/cm^2)” value came out at 22%.

For `CC(C)CCCCCCCCCCOC(=O)CCCCCC(C)C` [Ester oil b2, Isotridecyl isononanoate], in data set [2], the “Viscosity (at 23° C.)” value is reported as 11 mPa · s. For the same compound, the “Surface tension (at 25° C.)” value in data set [3] turned out to be 28 mN/m. Also, the “Landing rate (at 0.5 mg/cm^2)” value in data set [4] (setting [6]) worked out at 15%.

Regarding `CCCCC(CC)C(=O)OCC(C)(C)COC(=O)C(CC)CCCC` (centres unmarked) [Ester oil b3, Neopentyl glycol di-2-ethylhexanoate], the “Surface tension (at 25° C.)” value in data set [3] is recorded as 28 mN/m. Also, the “Landing rate (at 0.5 mg/cm^2)” value in data set [4] (setting [6]) came to 12%.

With `CCCCCCCCCCCCCCCC(=O)OC(C)C` [Ester oil b4, Isopropyl palmitate], in data set [2], the “Viscosity (at 23° C.)” value turned out to be 7 mPa · s. Besides, the “Surface tension (at 25° C.)” value in data set [3] is 27 mN/m. In data set [4] (setting [6]), the “Landing rate (at 0.5 mg/cm^2)” value was 19%.

For `CCCCCCCCCCCCCC(=O)OC(C)C` [Ester oil b5, Isopropyl myristate], the “Viscosity (at 23° C.)” value in data set [2] is listed as 5 mPa · s. Besides, the “Landing rate on exposed area (at 0.25 mg/cm^2)” value (“Landing rate on exposed area” for short) in data set [5] was determined as 24%. The “Surface tension (at 25° C.)” value in data set [3] is recorded as 28 mN/m. The “Landing rate (at 0.25 mg/cm^2)” value in data set [4] (setting [7]) was determined as 11%. For the same compound, in data set [4] (setting [6]), the “Landing rate (at 0.5 mg/cm^2)” value was 11%.

In the case of `CCCCCCCCCC(=O)OCC(C)(C)COC(=O)CCCCCCCCC` [Ester oil b6, Neopentyl glycol dicaprate], in data set [2], the “Viscosity (at 23° C.)” value stood at 15 mPa · s. Moreover, in data set [3], the “Surface tension (at 25° C.)” value is 28 mN/m. Also, the “Landing rate (at 0.5 mg/cm^2)” value in data set [4] (setting [6]) amounted to 20%.

Regarding `CCCCCCCCCCCCCCCCOC(C)CC(C)C` (centres unmarked) [Ether oil c1, Cetyl-1,3-dimethylbutyl ether], the “Viscosity (at 23° C.)” value in data set [2] is given as 7 mPa · s. For the same compound, the “Landing rate on exposed area” value in data set [5] is listed as 15%. Further, in data set [3], the “Surface tension (at 25° C.)” value amounted to 28 mN/m. Also, the “Landing rate (at 0.5 mg/cm^2)” value in data set [4] (setting [6]) worked out at 13%.

Regarding `CCCCCCCCCCC(CO)CCCCCCCC` (centres unmarked) [Higher alcohol e1, 2-Octyl dodecanol], the “Viscosity (at 23° C.)” value in data set [2] is listed as 74 mPa · s. Further, in data set [3], the “Surface tension (at 25° C.)” value is reported as 29 mN/m. The “Landing rate (at 0.25 mg/cm^2)” value in data set [4] (setting [7]) is given as 16%.

`CC(C)=CCC/C(C)=C/CC/C(C)=C/CC/C=C(\C)CC/C=C(\C)CCC=C(C)C` [Hydrocarbon oil d3, Squalene]: the “Viscosity (at 23° C.)” value in data set [2] was found to be 42 mPa · s. Further, the “Landing rate on exposed area” value in data set [5] is recorded as 12%. Moreover, in data set [3], the “Surface tension (at 25° C.)” value was 30 mN/m. The “Landing rate (at 0.5 mg/cm^2)” value in data set [4] (setting [6]) is recorded as 21%.

As to `CCC(C)OC(=O)N1CCCCC1CCO` (centres unmarked) [Icaridin], the effective amount in data set [1] is not below 5 % by mass.

Turning to `OCCCO` [Polyhydric alcohol fx1, 1,3-Propanediol, reference compound], the “Viscosity (at 23° C.)” value in data set [2] was 53 mPa · s. Also, the “Surface tension (at 25° C.)” value in data set [3] came out at 48 mN/m. Besides, in data set [4] (coverage 0.5 mg/cm^2 on frosted glass-made substrate (Tempax #240) in place of replica skin substrate), the “Landing rate (at 0.5 mg/cm^2)” value was determined as 39%.

With `OCC(O)CO` [Polyhydric alcohol fx2, Glycerin, reference compound], the “Landing rate on exposed area” value in data set [5] is given as 75%. Besides, the “Surface tension (at 25° C.)” value in data set [3] was determined as 65 mN/m.

As for `CC(C)=CCCC(C)CCO` (centres unmarked) [citronellol], the effective amount in data set [1] is not below 10 % by mass.

Regarding “Polyglyceryl diisostearate [Ester oil bx1]”, the “Viscosity (at 23° C.)” value in data set [2] was 1000 mPa · s. For the same compound, the “Surface tension (at 25° C.)” value in data set [3] is 27 mN/m. Also, the “Landing rate (at 0.5 mg/cm^2)” value in data set [4] (setting [6]) is recorded as 21%.
